Source: patent US9657351B2, “MRNA-based gene expression for personalizing patient cancer therapy with an MDM2 antagonist” (Hoffmann-La Roche Inc., priority 2013, dated 2017)
pIC50: −log10 of the molar value.

Tests used:
22Rv1 = assay: COMPOUND A In Vitro Assay; type: cell-based, human; settings: for pIC50: Homo sapiens
Source text: (§1) To generate an MDM2 antagonist therapy predictive signature, the response of MDM2 antagonist therapy in vitro with gene expression profiling (FIG. 1) is combined. A bank of 287 human cancer cell lines, collectively termed the Cell Lines for Oncology/Chugai ACcumulative Tumour EncycLopedia (CELLO/CACTEL), representing a broad array of diverse human cancer tumor types are subject to evaluation using several high-throughput genomic technology platforms. The mutational status of nucleic acids from each cell line is determined by exome sequencing. Messenger RNA (mRNA) expression levels at baseline, prior to MDM2 antagonist therapy, are obtained via RNA sequencing. MDM2 antagonist therapy COMPOUND A, sometimes referred to herein as RG7112, responses are obtained by assays known to those skilled in the art such as RNA sequencing and microarray measurement using Gene Chip Human Genome U133 Plus 2.0 Array. The MDM2 therapy responses are obtained by high throughout screening assays. Depending on their responses to COMPOUND A these cell lines are classified as either sensitive, defined as IC50<=1, or resistant, defined as IC50>=10.
(§2) 281 cells are treated with MDM2 antagonists and the IC50 (therapy response) is generated. The cell lines span a broad range of tumor cell types of derivation.

DU145 = assay: COMPOUND A In Vitro Assay; type: cell-based, human
Source text: as §1, §2

KMS-12-BM = assay: COMPOUND A In Vitro Assay; type: cell-based, human; settings: TP53 mutant cell line
Source text: as §1, §2

KMS-26 = assay: COMPOUND A In Vitro Assay; type: cell-based, human; settings: for pIC50: Homo sapiens
Source text: as §1, §2

LCLC-103H = assay: COMPOUND A In Vitro Assay; type: cell-based, human
Source text: as §1, §2

LN-18 = assay: COMPOUND A In Vitro Assay; type: cell-based, human; settings: for pIC50: Homo sapiens
Source text: as §1, §2

MKN-45 = assay: COMPOUND A In Vitro Assay; type: cell-based, human; settings: for pIC50: Homo sapiens
Source text: as §1, §2

NCI-H2122 = assay: COMPOUND A In Vitro Assay; type: cell-based, human; settings: for pIC50: Homo sapiens
Source text: as §1, §2

NCI-H226 = assay: COMPOUND A In Vitro Assay; type: cell-based, human; settings: for pIC50: Homo sapiens
Source text: as §1, §2

PC-9 = assay: COMPOUND A In Vitro Assay; type: cell-based, human; settings: for pIC50: Homo sapiens
Source text: as §1, §2

SW1463 = assay: COMPOUND A In Vitro Assay; type: cell-based, human
Source text: as §1, §2

[1] = system: CELLO/CACTEL human cancer cell lines; assay: COMPOUND A In Vitro Assay, whole CELLO/CACTEL panel (IC50 vs mRNA signature score, TP53 status, tumor type); type: cell-based; settings: for % Res: resistant IC50>=10; for % Sen: sensitive IC50<=1
Source text: as §1, §2
To examine the specific prediction power of the mRNA signature score across the studied tumor types, and to make sure the prediction from the signature score is not confounded by tumor lineage, the signature score within each available tumor type in CELLO (Table 7, 7a) is examined.
The genes are ranked via their fold changes of responder cell lines to non-responder cell lines. Positive genes are defined as those with fold changes higher than 1; whereas negative genes are defined as those with fold changes less than 1. A multivariate logistic regression classifier is then built through a upward model selection procedure to maximize area under the receiver operating characteristic (ROC) curve with 10-fold cross-validation. The mode selection is implemented procedure through R package bestglm.

P21 = assay: NP21280 solid tumor trial, tumor biopsy biomarker (p21 IHC); type: in vivo, human; settings: p=2.32×10−3
Description: The predictive mRNA signature is also evaluated in two solid tumor trials (FIG. 1). […] In both clinical trials, a biomarker package that enabled assessment of p53 pathway activation is assessed (p53 IHC, p21 IHC, MDM2 mRNA, and Ki67), MDM2 inhibition activates the P53 pathway and decreases cell proliferation.

P53 = settings: NP22890; at C1D8; as previously reported; cited from earlier work
MDM2 mRNA = settings: NP22890; at C1D8; as previously reported; cited from earlier work
[2] = Adenocarcinoma cell lines, N 21
[3] = Adenocarcinoma, colorectal cell lines, N 7
[4] = Bone marrow cell lines, Number 5
[5] = Breast, mammary gland cell lines, Number 20
[6] = Carcinoma, gastric cell lines, N 5
[7] = Carcinoma, primary ductal cell lines, N 5
[8] = Carcinoma, squamous cell cell lines, N 12
[9] = Carcinoma, urinary bladder, transitional cell carcinoma (TCC) cell lines, N 7
[10] = Intestine, large, colon cell lines, Number 8
[11] = Leukaemia, acute myeloid cell lines, N 5
[12] = Lymphocyte cell lines, Number 6
[13] = Myeloma, multiple cell lines, N 5
[14] = Neuroblastoma (Glioma, neuroblastoma) cell lines, N 6
[15] = Urinary, bladder cell lines, Number 8

SMILES: CCOc1cc(C(C)(C)C)ccc1C1=N[C@@](C)(c2ccc(Cl)cc2)[C@@](C)(c2ccc(Cl)cc2)N1C(=O)N1CCN(CCCS(C)(=O)=O)CC1 [COMPOUND A]
- response to COMPOUND A (sensitive / resistant) (22Rv1; 22Rv1, TP53 mutant cell line): sensitive (sensitive, defined as IC50<=1)
- pIC50 (22Rv1; 22Rv1, 22Rv1, Prostate, TP53 Mutant): 6.01
- pIC50 (22Rv1; 22Rv1, 22Rv1 cells): 6.00
- pIC50 (DU145; Homo sapiens, DU-145, Prostate, TP53 Mutant): 6.00
- response to COMPOUND A (sensitive / resistant) (DU145; TP53 mutant cell line): sensitive (sensitive, defined as IC50<=1)
- response to COMPOUND A (sensitive / resistant) (KMS-12-BM): sensitive (sensitive, defined as IC50<=1)
- pIC50 (KMS-26; KMS-26, KMS-26, Lymphocyte, TP53 Mutant): 6.35
- pIC50 (KMS-26; KMS-26, KMS-26 cells): 6.30
- response to COMPOUND A (sensitive / resistant) (KMS-26; KMS-26, TP53 mutant cell line): sensitive (sensitive, defined as IC50<=1)
- pIC50 (LCLC-103H; Homo sapiens, Lung, TP53 Mutant): 6.15
- response to COMPOUND A (sensitive / resistant) (LCLC-103H; TP53 mutant cell line): sensitive (sensitive, defined as IC50<=1)
- pIC50 (LN-18; LN-18, LN-18, Brain, temporal lobe, TP53 Mutant): 6.17
- pIC50 (LN-18; LN-18, LN-18 cells): 6.15
- response to COMPOUND A (sensitive / resistant) (LN-18; LN-18, TP53 mutant cell line): sensitive (sensitive, defined as IC50<=1)
- pIC50 (MKN-45; MKN-45, MKN-45, Stomach, TP53 Mutant): 6.74
- pIC50 (MKN-45; MKN-45, MKN-45 cells): 6.70
- response to COMPOUND A (sensitive / resistant) (MKN-45; MKN-45, TP53 mutant cell line): sensitive (sensitive, defined as IC50<=1)
- pIC50 (NCI-H2122; NCI-H2122, NCI-H2122, Lung, TP53 Mutant): 6.80
- pIC50 (NCI-H2122; NCI-H2122, NCI-H2122 cells): 6.70
- response to COMPOUND A (sensitive / resistant) (NCI-H2122; NCI-H2122, TP53 mutant cell line): sensitive (sensitive, defined as IC50<=1)
- pIC50 (NCI-H226; NCI-H226, NCI-H226, Lung, TP53 Mutant): 6.89
- pIC50 (NCI-H226; NCI-H226, NCI-H226 cells): 7.00
- response to COMPOUND A (sensitive / resistant) (NCI-H226; NCI-H226, TP53 mutant cell line): sensitive (sensitive, defined as IC50<=1)
- pIC50 (PC-9; PC-9, PC-9, Lung, TP53 Mutant): 6.16
- pIC50 (PC-9; PC-9, PC-9 cells): 6.15
- response to COMPOUND A (sensitive / resistant) (PC-9; PC-9, TP53 mutant cell line): sensitive (sensitive, defined as IC50<=1)
- pIC50 (SW1463; Homo sapiens, Intestine, large, rectum, TP53 Mutant): 6.00
- response to COMPOUND A (sensitive / resistant) (SW1463; TP53 mutant cell line): sensitive (sensitive, defined as IC50<=1)
- N (resistant) [1, 2]: 17
- N (sensitive) [1, 2]: 4
- N (resistant) [1, 3]: 5
- N (sensitive) [1, 3]: 2
- % Res [1, 4]: 60.0%
- % Sen [1, 4]: 40.0%
- % Res ([1]; Brain cell lines, Number 10): 50.0%
- % Sen ([1]; Brain cell lines, Number 10): 50.0%
- % Res [1, 5]: 85.0%
- % Sen [1, 5]: 15.0%
- N (resistant) ([1]; Carcinoma cell lines, N 8): 6
- N (sensitive) ([1]; Carcinoma cell lines, N 8): 2
- N (resistant) [1, 6]: 3
- N (sensitive) [1, 6]: 2
- N (resistant) [1, 7]: 4
- N (sensitive) [1, 7]: 1
- N (resistant) [1, 8]: 9
- N (sensitive) [1, 8]: 3
- N (resistant) [1, 9]: 6
- N (sensitive) [1, 9]: 1
- % Res [1, 10]: 62.5%
- % Sen [1, 10]: 37.5%
- N (resistant) [1, 11]: 3
- N (sensitive) [1, 11]: 2
- % Res ([1]; Lung cell lines, Number 41): 85.4%
- % Sen ([1]; Lung cell lines, Number 41): 14.6%
- % Res [1, 12]: 50.0%
- % Sen [1, 12]: 50.0%
- N (resistant) [1, 13]: 2
- N (sensitive) [1, 13]: 3
- N (resistant) [1, 14]: 3
- N (sensitive) [1, 14]: 3
- % Res ([1]; Ovary cell lines, Number 6): 66.7%
- % Sen ([1]; Ovary cell lines, Number 6): 33.3%
- % Res ([1]; Pancreas cell lines, Number 9): 100.0%
- % Sen ([1]; Pancreas cell lines, Number 9): 0.0%
- % Res ([1]; Skin cell lines, Number 6): 66.7%
- % Sen ([1]; Skin cell lines, Number 6): 33.3%
- % Res ([1]; Stomach cell lines, Number 8): 50.0%
- % Sen ([1]; Stomach cell lines, Number 8): 50.0%
- % Res [1, 15]: 75.0%
- % Sen [1, 15]: 25.0%
- P21 concentration change from baseline (P21): significantly increase
- P53 concentration change from baseline (P53): significantly increase
- MDM2 mRNA expression change from baseline (MDM2 mRNA): significantly increase
